Row | melting point [°C] | SMILES
1 | 187 to 190 | COCC1CCCN1c1cccc(-c2cnc3[nH]cc(C(=O)NC(C)C)c3n2)c1 (centres unmarked) [Example I-230, 2-[3-(2-Methoxymethyl-pyrrolidin-1-yl)-phenyl]-5H-pyrrolo[2,3-b]pyrazine-7-carboxylic acid isopropylamide]
2 | 237 to 239 | CC1(O)CCN(c2cccc(-c3cnc4[nH]cc(C(=O)C(C)(C)C)c4n3)c2)C1 (centres unmarked) [Example I-417, 1-{2-[3-(3-Hydroxy-3-methyl-pyrrolidin-1-yl)-phenyl]-5H-pyrrolo[2,3-b]pyrazin-7-yl}-2,2-dimethyl-propan-1-one]
3 | 180 to 182 | CC1(C(=O)c2c[nH]c3ncc(-c4ccc(OCCN5CCCCC5)cc4)nc23)CCCCC1 [Example I-368, (1-Methyl-cyclohexyl)-{2-[4-(2-piperidin-1-yl-ethoxy)-phenyl]-5H-pyrrolo[2,3-b]pyrazin-7-yl}-methanone]
4 | 219.3 to 221.1 | CC(C)(C)C(=O)c1c[nH]c2ncc(-c3cccc(-n4cccn4)c3)nc12 [Example I-115, 2,2-Dimethyl-1-[2-(3-pyrazol-1-yl-phenyl)-5H-pyrrolo[2,3-b]pyrazin-7-yl]-propan-1-one]
5 | 198.4 to 202.7 | CC(C)(C)C(=O)c1c[nH]c2ncc(-c3ccc(OCCN4CCOCC4)cc3)nc12 [Example I-40, 2,2-Dimethyl-1-{2-[4-(2-morpholin-4-yl-ethoxy)-phenyl]-5H-pyrrolo[2,3-b]pyrazin-7-yl}-propan-1-one]
6 | 229 to 230 | COCOc1cc(-c2cnc3[nH]cc(C(=O)C(C)(C)C)c3n2)cc(N2CCCC2)c1 [Example I-151, 1-[2-(3-Methoxymethoxy-5-pyrrolidin-1-yl-phenyl)-5H-pyrrolo[2,3-b]pyrazin-7-yl]-2,2-dimethyl-propan-1-one]
7 | 233 to 234 | CC(C)(C)C(=O)c1c[nH]c2ncc(-c3ccc(F)c(Cl)c3)nc12 [Example I-341, 1-[2-(3-Chloro-4-fluoro-phenyl)-5H-pyrrolo[2,3-b]pyrazin-7-yl]-2,2-dimethyl-propan-1-one]
8 | 227 to 228.5 | CC(C)(C)C(=O)c1c[nH]c2ncc(-c3cccc(C(=O)NC4CCCC4)c3)nc12 [Example I-136, N-Cyclopentyl-3-[7-(2,2-dimethyl-propionyl)-5H-pyrrolo[2,3-b]pyrazin-2-yl]-benzamide]
9 | 238 to 239 | CC(=O)N1CCN(c2cccc(-c3cnc4[nH]cc(C(=O)C(C)(C)C)c4n3)c2)CC1 [Example I-100, 1-{2-[3-(4-Acetyl-piperazin-1-yl)-phenyl]-5H-pyrrolo[2,3-b]pyrazin-7-yl}-2,2-dimethyl-propan-1-one]
10 | 234 to 246 | CC(C)(C)C(=O)c1c[nH]c2ncc(-c3ccc(N4CCNCC4)cc3)nc12 [Example I-45, 2,2-Dimethyl-1-[2-(4-piperazin-1-yl-phenyl)-5H-pyrrolo[2,3-b]pyrazin-7-yl]-propan-1-one]
11 | 215.2 to 215.8 | CC(C)(C)OC(=O)N1CCN(c2cccc(-c3cnc4[nH]cc(C(=O)C(C)(C)C)c4n3)c2)CC1 [Example I-44, 4-{3-[7-(2,2-Dimethyl-propionyl)-5H-pyrrolo[2,3-b]pyrazin-2-yl]-phenyl}-piperazine-1-carboxylic acid tert-butyl ester]

Second part, the compound before the results:

Row | SMILES | melting point [°C]
12 | Cc1nnc(-c2cccc(-c3cnc4[nH]cc(C(=O)C5(C)CCCCC5)c4n3)c2)o1 [Example 155, (1-Methyl-cyclohexyl)-{2-[3-(5-methyl-[1,3,4]oxadiazol-2-yl)-phenyl]-5H-pyrrolo[2,3-b]pyrazin-7-yl}-methanone] | 234 to 236
13 | Cn1nccc1-c1ccc(-c2cnc3[nH]cc(C(=O)C(C)(C)C)c3n2)cc1 [Example 281, 2,2-Dimethyl-1-{2-[4-(2-methyl-2H-pyrazol-3-yl)-phenyl]-5H-pyrrolo[2,3-b]pyrazin-7-yl}-propan-1-one] | 257 to 258
14 | COc1ccc(-c2cnc3[nH]cc(C(=O)NC4CCN(C)C4)c3n2)cc1OC (centres unmarked) [Example 25, 2-(3,4-Dimethoxy-phenyl)-5H-pyrrolo[2,3-b]pyrazine-7-carboxylic acid (1-methyl-pyrrolidin-3-yl)-amide] | 193 to 194
15 | COc1cc(-c2cnc3[nH]cc(C(=O)C(C)(CO)CO)c3n2)cc(OC)c1OC [Example 58, 3-Hydroxy-2-hydroxymethyl-2-methyl-1-[2-(3,4,5-trimethoxy-phenyl)-5H-pyrrolo[2,3-b]pyrazin-7-yl]-propan-1-one] | 222 to 223
16 | CC1(C(=O)c2c[nH]c3ncc(-c4ccc(N5CCOCC5)cc4)nc23)CCCCC1 [Example 172, (1-Methyl-cyclohexyl)-[2-(4-morpholin-4-yl-phenyl)-5H-pyrrolo[2,3-b]pyrazin-7-yl]-methanone] | 233 to 235
17 | COc1cc(-c2cnc3[nH]cc(C(=O)Cc4ccccc4)c3n2)cc(OC)c1OC [Example 64, 2-phenyl-1-[2-(3,4,5-trimethoxy-phenyl]-5H-pyrrolo[2,3-b]pyrazin-7-yl]-ethanone] | 226 to 227
18 | COc1ccc(-c2cnc3[nH]cc(C(=O)C(C)(C)C)c3n2)cc1 [Example 98, 1-[2-(4-Methoxy-phenyl)-5H-pyrrolo[2,3-b]pyrazin-7-yl]-2,2-dimethyl-propan-1-one] | 207 to 208
19 | CNS(=O)(=O)c1ccc(-c2cnc3[nH]cc(C(=O)C(C)(C)C)c3n2)cc1 [Example 142, 4-[7-(2,2-Dimethyl-propionyl)-5H-pyrrolo[2,3-b]pyrazin-2-yl]-N-methyl-benzenesulfonamide] | 278 to 280
20 | COc1cc(-c2cnc3[nH]cc(C(=O)NC4CCCOC4)c3n2)cc(OC)c1OC (centres unmarked) [Example 23, 2-(3,4,5-Trimethoxy-phenyl)-5H-pyrrolo[2,3-b]pyrazine-7-carboxylic acid (tetrahydro-pyran-3-yl)-amide] | 191 to 192
21 | COc1ccc(-c2cnc3[nH]cc(C(=O)C(C)(C)C)c3n2)cc1N1CCCC1 [Example 101, 1-[2-(4-Methoxy-3-pyrrolidin-1-yl-phenyl)-5H-pyrrolo[2,3-b]pyrazin-7-yl]-2,2-dimethyl-propan-1-one] | 211 to 213
22 | CC(C)(C)C(=O)c1c[nH]c2ncc(-c3cccc(CN4CCCCC4)c3)nc12 [Example 150, 2,2-Dimethyl-1-[2-(3-piperidin-1-ylmethyl-phenyl)-5H-pyrrolo[2,3-b]pyrazin-7-yl]-propan-1-one] | 176 to 177
23 | CC1(C(=O)c2c[nH]c3ncc(-c4cccc(N5CCN(S(N)(=O)=O)CC5)c4)nc23)CCCCC1 [Example 183, 4-{3-[7-(1-Methyl-cyclohexanecarbonyl)-5H-pyrrolo[2,3-b]pyrazin-2-yl]-phenyl}-piperazine-1-sulfonic acid amide] | 233 to 235
24 | CC(C)(C)C(=O)c1c[nH]c2ncc(-c3cccc(N4CC5(COC5)C4)c3)nc12 [Example 282, 2,2-dimethyl-1-{2-[3-(2-oxa-6-aza-spiro[3.3]hept-6-yl)-phenyl]-5H-pyrrolo[2,3-b]pyrazin-7-yl}-propan-1-one] | 260 to 262
25 | CC(C)(C)C(=O)c1c[nH]c2ncc(-c3cccc(N4CCS(=O)(=O)CC4)c3)nc12 [Example 230, 1-{2-[3-(1,1-Dioxo-1lambda*6*-thiomorpholin-4-yl)-phenyl]-5H-pyrrolo[2,3-b]pyrazin-7-yl}-2,2-dimethyl-propan-1-one] | 279 to 280
26 | CC(C)(C)OC(=O)N1CCN(c2cccc(-c3cnc4[nH]cc(C(=O)C5(C)CCCCC5)c4n3)c2)CC1 [Example 175, 4-{3-[7-(1-Methyl-cyclohexanecarbonyl)-5H-pyrrolo[2,3-b]pyrazin-2-yl]-phenyl}-piperazine-1-carboxylic acid tert-butyl ester] | 212 to 213
27 | CC1(C(=O)c2c[nH]c3ncc(-c4cccc(N5CCN(C(=O)C6CCNCC6)CC5)c4)nc23)CCCCC1 [Example 180, (1-Methyl-cyclohexyl)-(2-{3-[4-(piperidine-4-carbonyl)-piperazin-1-yl]-phenyl}-5H-pyrrolo[2,3-b]pyrazin-7-yl)-methanone] | > 300
28 | CC1(C(=O)c2c[nH]c3ncc(-c4cccc(N5CCCC5=O)c4)nc23)CCCCC1 [Example 283, 1-{3-[7-(1-methyl-cyclohexanecarbonyl)-5H-pyrrolo[2,3-b]pyrazin-2-yl]-phenyl}-pyrrolidin-2-one] | 215 to 217
29 | CC1(C(=O)c2c[nH]c3ncc(Br)nc23)CCCC1 [Example 166, (2-Bromo-5H-pyrrolo[2,3-b]pyrazin-7-yl)-(1-methyl-cyclopentyl)-methanone] | 206.9 to 207.9
30 | CC(C)(C)C(=O)c1c[nH]c2ncc(-c3cccc(-n4cccc4)c3)nc12 [Example 232, 2,2-Dimethyl-1-[2-(3-pyrrol-1-yl-phenyl)-5H-pyrrolo[2,3-b]pyrazin-7-yl]-propan-1-one] | 220 to 222
31 | COc1cc(-c2cnc3[nH]cc(C(=O)CC(C)C)c3n2)cc(OC)c1OC [Example 63, 3-methyl-1-[2-(3,4,5-trimethoxy-phenyl)-5H-pyrrolo[2,3-b]pyrazin-7-yl]-butan-1-one] | 210 to 211.4
32 | CC1(C(=O)c2c[nH]c3ncc(-c4cccc(N5CCCC5)c4)nc23)CC[C@@H]2CCC[C@@H]21 (stereo partly drawn) [Example 215, ((3aS,6aS)-1-Methyl-octahydro-pentalen-1-yl)-[2-(3-pyrrolidin-1-yl-phenyl)-5H-pyrrolo[2,3-b]pyrazin-7-yl]-methanone] | 200 to 202
33 | COc1cc(-c2cnc3[nH]cc(C(=O)N4CCCC4)c3n2)cc(OC)c1OC [Example 240, Pyrrolidin-1-yl-[2-(3,4,5-trimethoxy-phenyl)-5H-pyrrolo[2,3-b]pyrazin-7-yl]-methanone] | 210 to 212
34 | COc1cc(-c2cnc3[nH]cc(C(=O)C(C)(C)C)c3n2)cc(OC)c1OC [Example 67, 2,2-Dimethyl-1-[2-(3,4,5-trimethoxy-phenyl)-5H-pyrrolo[2,3-b]pyrazin-7-yl]-propan-1-one] | 240 to 241
35 | CC1(C(=O)c2c[nH]c3ncc(-c4ccc(N5CCCCC5)cc4)nc23)CCCCC1 [Example 174, (1-Methyl-cyclohexyl)-[2-(4-piperidin-1-yl-phenyl)-5H-pyrrolo[2,3-b]pyrazin-7-yl]-methanone] | 234 to 236

Reference: patent US8008298B2, “Pyrrolopyrazine kinase inhibitors” (Roche Palo Alto, priority 2008, dated 2011)
